From patent US8546447B2, “Treatment of acne using derivatives of 5-aminolevulinic acid” (Photocure ASA, priority 2004, dated 2013)

Legend:
P. acnes [1] = experiment: PDT with CureLight LED 128 (Aktilite) lamp, P. acnes survival; format: cell-based, Propionibacterium acnes; details: for PDT effect, photodynamic inactivation (FIG. 10) / kill: 0.4 mM; for PDT effect, photodynamic inactivation (FIG. 10): Aktilite 128 lamp; for kill: 10 minutes illumination; for bacteria killed: 26 minutes of illumination (78 J/cm^2)
Protocol: (§1) Propionibacterium acnes (P. acnes) was obtained from American Type Culture Collection (ATCC No. 6919), and bacteria were grown anaerobically in the dark on blood-agar plates at 37° C.
(§2) PIPES buffer (ca. 1 ml) was added to each blood-agar petri-plate and with the help of a sterile glass-rod and a Pasteur pipette, the bacteria solution was transferred to a 20 ml test-tube. The suspension was then diluted with PIPES buffer until the optical density (OD) was 1.00±0.01 at 550 nm as measured by a spectrophotometer. At this OD the bacteria density is approximately 5×10^8 cells per ml.
(§3) A bacteria sample (100 μl of the suspension containing approx. 5×10^8 bacteria per ml) was collected and used as a t=0 control. Aliquots of the bacteria suspension were mixed with suitable volumes of the stock solutions of 5-ALA esters (containing 100 mM ALA ester) to obtain the appropriate concentrations and incubated for 4 hours at 37° C. in the dark. If illumination was not performed, survival was then assessed as described below.
(§4) After treatment with ALA esters (with or without illumination), the treated bacteria samples (as well as untreated controls) were collected and further diluted with PIPES buffer to 1×10^4 bacteria per ml. Aliquots of 20 ml of this suspension were then transferred to Bactoagar Petri-dishes (Futsaether et al., Can. J. Microbiol., 39(2): 180-186 1993), and incubated for 3-5 days at 37° C. in the dark. The colonies formed on the Bactoagar Petri-plates were counted using a colony counter. Cell survival after incubation with different concentrations of 5-ALA esters is given relative to the control samples (i.e. samples collected at t=0 hrs and the sample collected after 4 hrs incubation without 5-ALA ester) and given as percent survival: Survival=[Ctreated/Ccontrol]×100%
In order to compare the ALA hexyl ester and the ALA benzyl ester at the same concentration (1 mM), and also to test another light source, another experiment involving the use of a narrow-band red light (CureLight LED 128 lamp sold under the tradename Aktilite by Photocure ASA, Norway) was conducted. This lamp consists of 128 light emitting diodes (LED) and has a peak wavelength of 634±3 nm. The emission spectrum of the lamp has a full width at half maximum (FWHM) of 18 nm. The fluence rate at 50 mm distance is approx. 50 mW/cm^2 (max. fluence rate variation of the target area is ±10%).
After incubation with the ALA esters, 10 ml bacterial suspensions were irradiated in a 5.5 cm plastic petri-dish (see general section above). The petri-dishes were placed on a support lying in a large water-reservoir at ambient temperature in order to avoid temperature effects. […] After 3-5 days of incubation (at 37° C. in the dark) the survival was determined as described in the general section and given relative to the non-illuminated control sample.
Photodynamic inactivation of P. acnes after incubation with the 5-ALA esters listed in Example 9 (at 0.4 mM concentration) was studied following illumination with an Aktilite® 128 lamp.

[2] = test system: Propionibacterium acnes (P. acnes); experiment: Dark toxicity of ALA esters in P. acnes (survival assay, colony forming ability); format: cell-based; details: for % CFU (mean normalised colony-forming units): 4 hours in the dark at 37° C.; for dark toxicity (FIG. 2): Example 1, concentrations up to 20 mM, 4 hours in the dark
Protocol: as §1
as §2, with “spectrophotometer.” for “spectrophotometer. At this OD the bacteria density is approximately 5×10^8 cells per ml.”
as §3, §4
In order to find suitable conditions for studying the photodynamic effect in P. acnes after incubation with ALA esters, a study was performed to assay the toxicity of the esters. This was done in the dark to avoid any PDT effect caused by stray light.
In order to find suitable conditions for studying the photodynamic effect in P. acnes after incubation with benzyl-, 4-chlorobenzyl-, 4-nitrobenzyl-, 2-methylbenzyl-, 4-methylpentyl- and 2-methoxyethyl 5-aminolevulinate, a study was performed to assay the toxicity of these compounds. This was done in the dark, as in Example 1, to avoid any PDT effect caused by stray light.

[3] = Itoh et al. 2001; Hongcharau et al. 2000; cited from earlier work
P. acnes [4] = experiment: PDT with CureLight BroadBand lamp, P. acnes survival; format: cell-based, Propionibacterium acnes; details: for effectiveness to kill the bacteria (FIG. 3): 4 mM methyl ester, 4 mM benzyl ester, 1 mM hexyl ester, red light 580-740 nm
Protocol: as §1, §2, §3
In some cases, illumination was performed on the bacteria-suspensions treated with ALA esters. The exact conditions are described in the Examples below. After illumination, survival was assayed as described below.
as §4
Bacteria suspensions (P. acnes) were treated with 4 mM ALA methyl ester, 4 mM benzyl ester and 1 mM hexyl ester (due to high dark toxicity results for this ester) as described in the general section above, diluted and illuminated using a CureLight BroadBand lamp (available from PhotoCure ASA, Norway, red light of 580-740 nm and a fluence rate of ≦840 W/m^2) under temperature controlled conditions (e.g. at ambient temperature). During illumination, 2×20 μl aliquots were collected every second minute for at total of 10 minutes and assayed for survival as described in the general section above. Relative survival after illumination was calculated relative to the control sample without red light exposure.

P. granulosum = experiment: Dark toxicity in P. granulosum; format: cell-based, Propionibacterium granulosum
Protocol: Propionibacterium granulosum (P. granulosum) was obtained from American Type Culture Collection (ATCC No. 25564).
as §2, §3
After treatment with ALA esters (with or without illumination), the treated bacteria samples (as well as untreated controls) were collected and further diluted with PIPES buffer to 1×10^4 bacteria per ml. […] The colonies formed on the Bactoagar Petri-plates were counted using a colony counter. […]

P. acnes [5] = experiment: Intracellular porphyrin formation in P. acnes (fluorescence emission); format: cell-based, Propionibacterium acnes; details: four hours incubation at 37° C. in the dark, various concentrations
Protocol: To study the intracellular porphyrin formation after incubation with the ALA esters, bacteria (5×10^8 cells per ml, 10 ml) were incubated with ALA esters at 37° C. in the dark for four hours. The formation of porphyrins was followed by studying the fluorescence emission spectra (the porphyrins display characteristic peaks). The procedure was as follows:
To assess the amount of endogenously retained porhyrins, 8 ml of the 5-ALA ester incubated bacteria were added to plastic test-tubes and incubated at 2-3° C. in the refrigerator to halt further 5-ALA ester uptake and/or porhyrin formation. Then the cells from were pelleted by centrifugation (5000 g, 5 rain, 2-3° C.), the supernatant discarded and the cells resuspended in fresh buffer (8 ml) and mixed well. Aliquots of 2 ml bacterial suspension were transferred to standard disposable plastic cuvettes, and fluorescence emission spectra of the cell suspensions were determined in a Perkin Elmer LS 50B fluorescence spectrometer using the following settings:
Excitation wavelength, λx: 405 nm
Emission wavelength, λe: 550-700 nm
Excitation and emission slits: 5 nm
Emission monochromator speed: 300 nm/min
The fairly broad range of wavelengths measured was motivated by the need to have a control of the autofluorescence from the bacteria, which is most easily discernable at the lower or higher wavelengths.

P. avidum = experiment: Dark toxicity in P. avidum; format: cell-based, Propionibacterium avidum
Protocol: Propionibacterium avidum (P. avidum) was obtained from ATCC (ATCC No. 25577).
as §2, §3
After treatment with ALA esters (with or without illumination), the treated bacteria samples (as well as untreated controls) were collected and further diluted with PIPES buffer to 1×10^4 bacteria per ml. Aliquots of 20 ml of this suspension were then transferred to Bactoagar Petri-dishes (Futsaether et al., Can. J. Microbiol., 39(2): 180-186 1993), and incubated for 3-5 days at 37° C. in the dark. The colonies formed on the Bactoagar Petri-plates were counted using a colony counter. […]

[6] = Example 9, concentrations up to 20 mM
[7] = hexylester compared with benzylester

SMILES | PDT effect, photodynamic inactivation (FIG. 10) (P. acnes [1]) | % CFU (mean normalised colony-forming units) ([2]; 0.4 mM) | % CFU (mean normalised colony-forming units) ([2]; 4 mM) | % CFU (mean normalised colony-forming units) ([2]; 20 mM) | kill (P. acnes [1]) | effectiveness to kill the bacteria (FIG. 3) (P. acnes [4]) | inducing porphyrin formation (FIG. 5) (P. acnes [5]) | dark toxicity (FIG. 2) [2] | other results
COCCOC(=O)CCC(=O)CN [2-methoxyethyl, 2-methoxyethyl 5-aminolevulinate] | weaker PDT effect | 75.5% | 60.8% | 54.0% |  |  |  |  | dark toxicity (in words) [2, 6]: almost no toxicity
Cc1ccccc1COC(=O)CCC(=O)CN [2-methylbenzyl, 2-methylbenzyl ALA ester] | good abilities to kill the bacteria | 66.0% | 1.2% | 0.0% | approx. 50% |  |  |  | dark toxicity (in words) ([2]; Example 9, at 4 mM): considerable toxicity
NCC(=O)CCC(=O)OCc1ccc(Cl)cc1 [4-chlorobenzyl, 4-chlorobenzyl ALA ester] | most efficient | 81.6% | 3.7% | 0.0% | ~100% |  |  |  | dark toxicity (in words) ([2]; Example 9, at 4 mM): considerable toxicity
CC(C)CCCOC(=O)CCC(=O)CN [4-methylpentyl, 4-methylpentyl ALA ester] | weaker PDT effect | 86.5% | 37.3% | 0.5% |  |  |  |  | 
NCC(=O)CCC(=O)OCc1ccc([N+](=O)[O-])cc1 [4-nitrobenzyl, 4-nitrobenzyl ALA ester] | most efficient | 63.5% | 61.8% | 53.2% | ~100% |  |  |  | dark toxicity (in words) [2, 6]: almost no toxicity
NCC(=O)CCC(=O)O [5-ALA, 5-amino-4-oxo-pentanoic acid] |  |  |  |  |  |  |  |  | adverse effects of ALA-PDT [3]: significant adverse effects; efficacy of ALA-PDT for treatment of acne [3]: may be effective
CCCCCCOC(=O)CCC(=O)CN [ALA hexyl ester, Hexyl 5-aminolevulinate] |  |  |  |  |  | quite effective | least effective | very toxic | bacteria killed (P. acnes [1]; 1 mM): 40%; killed (P. granulosum; 4 mM, dark): 100%; dark toxicity (FIG. 6) (P. granulosum; [7]): considerably more toxic; killed (P. avidum; 4 mM, dark): 100%; dark toxicity (FIG. 6) (P. avidum; [7]): considerably more toxic
COC(=O)CCC(=O)CN [ALA methyl ester, methyl ALA ester] |  |  |  |  |  | least effective | slightly higher porphyrin levels | essentially non-toxic | 
NCC(=O)CCC(=O)OCc1ccccc1 [Benzyl, benzyl 5-aminolevulinate] | good abilities to kill the bacteria | 78.3% | 62.9% | 15.0% | approx. 50% | most effective | by far the most effective inducer | intermediate toxicity | light dose sufficient to obtain 100% kill (P. acnes [4]; 4 mM, CureLight BroadBand lamp): approx. 10 J/cm^2; bacteria killed (P. acnes [1]; 1 mM): killed all bacteria; photodynamic effect (FIG. 4) (P. acnes [1]; 1 mM, LED lamp 634 nm): much better photodynamic effect
